“Also recorded” adds a separate entry of the source.
What was measured:
[1] = Thermogravimetric analysis (loss of mass before melting/degradation); type: physicochemical; conditions: 25° C. to 250° C. at about 10° C./minute
Description: Thermogravimetric analysis (TGA) was performed. A 10 to 20 mg of sample of a crystalline form of 4-[(7-methoxy-2,3-dihydro-1,4-benzothiazepin-4(5H)yl)methyl]benzoic acid hemifumarate was placed into an aluminum pan, with nitrogen purge. The sample was equilibrated at 25° C. in a temperature-controlled chamber. The sample was heated at a scan rate of about 10° C./minute to 250° C. under nitrogen purge. A TGA Q5000 thermogravimetric analysis instrument was used.

[2] = Dynamic vapor sorption (hygroscopicity); type: physicochemical; conditions: DVS, 25° C., 0-90% relative humidity
Description: Dynamic vapor sorption (DVS) analysis was performed by measuring mass variation of the crystalline form of 4-[(7-methoxy-2,3-dihydro-1,4-benzothiazepin-4(5H)yl)methyl]benzoic acid hemifumarate as a function of relative humidity using a DVS intrinsic instrument. A 5 mg to 10 mg of a sample of a crystalline form of 4-[(7-methoxy-2,3-dihydro-1,4-benzothiazepin-4(5H)yl)methyl]benzoic acid, hemifumarate was placed into a sample pan of a DVS intrinsic instrument at 25° C. under controlled humidity. The mass variation was recorded as a function of relative humidity.
Measurement of DVS comprised: (a) equilibrating a sample of the crystalline form at 25° C. and 50% relative humidity in a temperature-controlled and humidity controlled chamber until mass variation is less than 0.002% per minute for 6 hours; (b) increasing the relative humidity from 50% to 90% at a rate of 10% per hour; (c) equilibrating the sample at 90% relative humidity until mass variation of less than 0.002% per minute for 6 hours is observed; (d) decreasing the relative humidity from 90% to 0% at a rate of 10% per hour; (e) equilibrating the sample at 0% relative humidity until mass variation of less than 0.002% per minute for 6 hours is observed; and (f) increasing the relative humidity from 0% to 50% at a rate of 10% per hour.

Loss of mass before melting degradation (TGA) [1]: < 0.1%
SMILES: COc1ccc2c(c1)CN(Cc1ccc(C(=O)O)cc1)CCS2.O=C(O)/C=C/C(=O)O [Form 2, 4-[(7-methoxy-2,3-dihydro-1,4-benzothiazepin-4(5H)yl)methyl]benzoic acid, hemifumarate]
Hygroscopicity [2]: non-hygroscopic; also recorded: not hygroscopic

— patent US11504383B2, “Crystalline forms of a Ryanodine receptor modulator and uses thereof” (ARMGO Pharma, Inc., priority 2021, dated 2022)
